Like-named read-outs stand apart in the source and are kept apart here.
Key:
[1] = Corrosion Test 1 (dynamic wheel test; 3 wt% brine/Mentor 28; CO2 + H2S); conditions: 24 h, 70° C.
Method: (§1) For each compound three mild steel coupons (approximately 100 mm×12 mm×1.5 mm) were tested at each concentration. Each was contacted in a 250 ml bottle with 200 ml of a test fluid either saturated with a carbon dioxide at 20° C. or containing 100 ppm hydrogen sulphide or having both CO2 and H2 S present in those amounts. The test fluid was treated with a 30% aqueous solution of the compound under test at 2, 10, 50 and 250 ppm except where indicated to the contrary. The coupon was subjected to a dynamic wheel test in which the bottle was mounted radially on the periphery of 650 mm diameter wheel which was rotated at about 40 rpm for 24 hours at 70° C. The weight loss was obtained, and also measured in a control experiment where no inhibitor was present. From this the % protection was calculated as % reduction in weight loss.
Test fluid: 100 ml 3 wt% brine/100 ml Mentor 28 (Mentor®28 is a depolarised kerosene available from Exxon Chemical Company)
(§2) Corrosives: Saturated CO2 +100 ppm H2 S

[2] = Corrosion Test 3 (dynamic wheel test; 3 wt% brine + Mentor 28; CO2 only); conditions: 24 h, 70° C.
Method: as §1
(§3) Test fluid: 100 ml 3 wt% brine+100 ml Mentor 28
Corrosives: Saturated CO2 only

[3] = Emulsion Test (3 wt% brine / heptane); format: physicochemical; conditions: for Time to break emulsion: 1 ml of 35 wt% IPA solution, 50 ml 3 wt% brine, 50 ml heptane; for Appearance after 30 mins, hydrocarbon: hydrocarbon layer; for Appearance after 30 mins, hydrocarbon / Appearance after 30 mins, water: 50 ml 3 wt% brine/50 ml heptane; for Appearance after 30 mins, water: water layer
Method: 1 ml of the solutions used for Test A was shaken with 50 ml of 3 wt% brine and 50 ml of heptane for 1 minute in a 150 ml bottle. The emulsion was observed, and the time noted for the emulsion to break and form a clean interface with clear liquid layers. If at 30 minutes this had not occurred, the appearance was recorded together with the thickness of any persisting emulsion.

[4] = Corrosion Test 2 (dynamic wheel test; 3 wt% brine; CO2 + H2S); conditions: 24 h, 70° C.
Method: as §1
Test Fluid: 200 ml 3 wt% brine
as §2

[5] = Corrosion Test 4 (dynamic wheel test; 3 wt% brine + Mentor 28; H2S); conditions: 24 h, 70° C.
Method: as §1, §3
Corrosives: 100 ppm H2 S (prior nitrogen purge)

[6] = Solubility Test (35 wt% solution in isopropylalcohol shaken with water, brine or heptane); format: physicochemical
Method: The active material under test was made up into a 35 wt% solution in isopropylalcohol (IPA). 0.3 ml of this solution was shaken with 10 ml of each of the liquids in which solubility is to be tested: water, 5 wt% NaCl solution (brine) and heptane. The mixture was observed after 30 minutes and 24 hours.

[7] = Film persistency corrosion test; conditions: CO2 + H2S, 24 h, 70° C.
Method: […] A test fluid made up of equal proportions of 3 wt% brine and Mentor 28 was used, saturated with CO2 and containing 100 ppm H2 S as corrosives. Coupons were used as described for the previous corrosion test. A coupon was first immersed in test fluid containing corrosives and the inhibitor under test for 1 hour, then rinsed for 1 hour in a similar test fluid containing no inhibitor and finally transferred to a further test fluid again containing no inhibitor in which the dynamic wheel test was carried out at 70° C. for 24 hours.

[8] = 0.3 ml of 35 wt% IPA solution in 10 ml heptane, 30 minutes and 24 hours
[9] = 0.3 ml of 35 wt% IPA solution in 10 ml water, observed after 30 minutes and 24 hours

| Compound | % Protection ([1]; 2 ppm, 30% solution) | % Protection ([1]; 10 ppm, 30% solution) | % Protection ([1]; 50 ppm, 30% solution) | % Protection ([1]; 250 ppm, 30% solution) | % Protection ([2]; 2 ppm) | % Protection ([2]; 10 ppm) | % Protection ([2]; 50 ppm) | % Protection ([2]; 250 ppm) | Time to break emulsion [3] | Appearance after 30 mins, hydrocarbon [3] | Appearance after 30 mins, water [3] | % Protection ([4]; 2 ppm) | % Protection ([4]; 10 ppm) | % Protection ([4]; 50 ppm) | % Protection ([4]; 250 ppm) | % Protection ([5]; 2 ppm) | % Protection ([5]; 10 ppm) | % Protection ([5]; 50 ppm) | % Protection ([5]; 250 ppm) | % Protection ([7]; 500 ppm) | also measured |
| --- | --- | --- | --- | --- | --- | --- | --- | --- | --- | --- | --- | --- | --- | --- | --- | --- | --- | --- | --- | --- | --- |
| CCCCCCCCCCCCNCCc1ccccn1 [Example 4] | 21% | 73% | 93% | 94% | 0% | 0% | 7% | 61% | > 30 min | hazy | hazy | 24% | 94% | 95% | 96% | 20% | 42% | 50% | 66% | 14% | SOLUBILITY IN: Heptane [6, 8]: S; SOLUBILITY IN: Water [6, 9]: S; % Protection ([7]; 1000 ppm): 14%; % Protection ([7]; 5000 ppm): 14% |
| c1ccc(CNCCc2ccccn2)cc1 [Example 8] | 21% | 72% | 81% | 81% | 13% | 32% | 34% | 37% | > 30 min | clear | hazy | 37% | 69% | 75% | 85% | 8% | 12% | 40% | 55% | 19% | % Protection ([1]; 2 ppm, * active material added as undiluted compound): 46%; % Protection ([1]; 10 ppm, * active material added as undiluted compound): 53%; % Protection ([1]; 50 ppm, * active material added as undiluted compound): 88%; % Protection ([1]; 250 ppm, * active material added as undiluted compound): 97%; SOLUBILITY IN: Heptane [6, 8]: S; SOLUBILITY IN: Water [6, 9]: S; % Protection ([7]; 1000 ppm): 22%; % Protection ([7]; 5000 ppm): 24% |
| CCCCCCNCCc1ccncc1 [Example 22] | 41% | 67% | 81% | 87% | 9% | 5% | 13% | 7% | 1 min | clear | clear | 11% | 9% | 41% | 74% | 8% | 50% | 67% | 67% | 19% | SOLUBILITY IN: Brine [6]: S; SOLUBILITY IN: Heptane [6]: S; SOLUBILITY IN: Water [6]: S; % Protection ([7]; 1000 ppm): 20%; % Protection ([7]; 5000 ppm): 23% |

Source: patent US4515708A, “Corrosion inhibitors” (Exxon Research & Engineering Co., priority 1982, dated 1985)
